This note sets out measurements from US11634447B2 (priority 2012, dated 2023).

The test system of the experiment is bacterial strain LF82 binding to the glycoprotein BSA-(Mannose)3. In words: Bacterial Binding Assay (BBA). The settings on record: read-out: Bacterial Binding Assay IC50, LF82/Luciferase strain binding to BSA-(Man)3 coated plates, luminescence. The format is cell-based, Escherichia coli. The text has this:
The purpose of the Bacterial Binding Assay (BBA) is to determine the inhibition activity of
selective FimH antagonists on the bacterial strain LF82 binding to the glycoprotein BSA-(Mannose)3.
Below is a list of the Materials used to run the BBA are described below. • 1. LB broth: Supplier: Gibco, #10855 • 2. D-PBS: Supplier: Wisent, #311-425-CL • 3. LB agar plates • 4. 96-well black plate (high binding): Supplier: Costar, #3925 • 5. TopSeal™-A adhesive sealing films; Supplier PerkinElmer, #6005185 • 6. Carbonate-bicarbonate buffer pH 9.6 tablets, Supplier: Medicago, #09-8922-24 • 7. Water, Supplier: Gibco, #15230-162 • 8. Bovine serum albumin (BSA): Supplier: Sigma, #A-7888 • 9. (Man)3-BSA (α1-3, α1-6 Mannotriose-BSA, 1 mg), V-Labs, #NGP1336, lot #HGDX37-169-1 • 10. Tween 20: Supplier: Sigma, #P9416 • 11. Bright-Glo Luciferase Assay System: Supplier: Promega, #E2610 • 12. LF82/Luciferase strain: Invasive ability of an Escherichia coli strain isolated from the ileal mucosa of a patient with Crohn ? disease. Boudeau J, Glasser A L, Masseret E, Joly B, Darfeuille-Michaud A, Infect Immun. 1999, 67(9), 4499-509
Solutions and buffers used to run the BBA are described below. • 1. 0.04M carbonate-bicarbonate buffer (coating buffer) • 2. 40 μg/mL BSA-(Man)3: Dissolve 1 mg of (Man)3-BSA in 25 mL of water. • 3. 4000 μg/mL BSA • 4. 40 μg/mL BSA • 5. 1 μg/mL BSA-(Man)3: 150 μL of 40 μg/mL BSA-(Man)3+5.85 mL of 40 μg/mL BSA • 6. 0.5 μg/mL BSA-(Man)3 in 0.02M carbonate-bicarbonate buffer. • 7. 20 μg/mL BSA in 0.02M carbonate-bicarbonate buffer • 8. Blocking buffer (2% BSA/DPBS): 1 g of BSA in 50 mL D-PBS • 9. 2× binding buffer (0.2% BSA/D-PBS): 5 mL of blocking buffer+45 mL D-PBS. • 10. Washing buffer (D-PBS/0.01% Tween 20): 10 μL of Tween 20 in 100 mL D-PBS. • 11. 1× Bright-Glo Luciferase substrate: Dilute 1:1 the Bright-Glo Luciferase Assay System with D-PBS The experimental protocol to run the BBA is described below.
Overnight culture of LF82/Luciferase strain: Into two Falcon 50 mL tubes, add 20 mL of LB+20 μL of 50 mg/mL Kanamycin and inoculate with a loop from glycerol stock of the LF82/Luciferase strain. Incubate overnight at 37° C. with no shaking.
Glycoprotein coating of 96-well plates: Add 100 μL/well of 0.5-2 μg/mL BSA-(Man)3. 20 μg/mL BSA is used as the control background. Seal plate using an adhesive sealing film and incubate overnight at room temperature. Wash the 96-well plate three times with 150 μL/well of D-PBS, add 170 μL/well of blocking solution and incubate 45 min (minimum) at room temperature.
Preparation of bacterial suspension: Mix the two cultures tubes (40 mL) and perform a 1:10 dilution in LB (900 μl LB+100 μl culture. Measure optical density (OD) of the bacterial cultures. OD1 ˜5×10^8 cells/mL. Centrifuge LF82 culture for 20 min at 3500 rpm at room temperature. Re-suspend bacterial pellet in D-PBS and centrifuge again for 20 min at 3500 rpm. Re-suspend bacterial pellet in D-PBS to obtain a bacterial concentration of 2×10^9 bacteria/mL. Dilute 1/10 in D-PBS to obtain a final bacterial concentration of 2×10^8 bacteria/mL (=107 bacteria/50 μL). Perform 1/10 serial dilutions in LB of each bacterial suspension, plate 10 μL of dilutions on LB agar plates (final dilutions of 10^−7) and incubate overnight at 37° C. and count CFUs to determine the actual bacteria density in the assay.
Bacterial binding assay: Add 147 μL 2× binding buffer to compound plate (containing 3 μL of compound). After blocking step is performed (at least 45 min), wash plates three times with 200 μL/well of D-PBS. With a 100 μL multichannel manual pipettor, add 50 µL/well of compound diluted in 2× binding buffer. With a 100 μL multichannel manual pipettor, add 50 μL/well of bacterial suspension. Agitate at slow speed for 1 min and incubate 40-75 min at room temperature. Wash 5 times with 150 μL/well of washing buffer and then once with D-PBS. Add 100 μL/well of 1× Bright-Glo Luciferase substrate. […]
As to `OC[C@H]1O[C@H](C#Cc2ccc3c(c2)C2(C[C@@H](O)[C@@H](O)C2)c2cc(C#C[C@H]4O[C@H](CO)[C@@H](O)[C@H](O)[C@@H]4O)ccc2-3)[C@@H](O)[C@@H](O)[C@@H]1O` (stereo partly drawn) [Compound 194, (2R,3 S,4R,5S,6R)-2-[2-[(3R,4S)-3,4-Dihydroxy-7[2-[(2R,3 S,4R,5S,6R)-3,4,5-trihydroxy-6-(hydroxymethyl)tetrahydropyran-2-yl]ethynyl]spiro[cyclopentane-1,9fluorene]-2yl]ethynyl]-6-(hydroxymethyl)tetrahydropyran-3,4,5-triol], the IC50 is 0.27 nM.
As for `OC[C@H]1O[C@H](C#Cc2coc(C#C[C@H]3O[C@H](CO)[C@@H](O)[C@H](O)[C@@H]3O)n2)[C@@H](O)[C@@H](O)[C@@H]1O` [Compound 129, (2R,3S,4R,5S,6R)-2-(hydroxymethyl)-6-[2-[2-[2-[(2R,3S,4R,5S,6R)-3,4,5-trihydroxy-6-(hydroxymethyl)tetrahydropyran-2-yl]ethynyl]oxazol-4-yl]ethynyl]tetrahydropyran-3,4,5-triol], the figure is 1240 nM; as for `CC1(C)c2cc(C#C[C@H]3O[C@H](CO)[C@@H](O)[C@H](O)[C@@H]3O)ccc2-c2ccc(C#C[C@H]3O[C@H](CO)[C@@H](O)[C@H](O)[C@@H]3O)cc21` [Compound 120, (2R,3S,4R,5S,6R)-2-[2-[9,9-dimethyl-7-[2-[(2R,3S,4R,5S,6R)-3,4,5-trihydroxy-6-(hydroxymethyl)tetrahydropyran-2-yl]ethynyl]fluoren-2-yl]ethynyl]-6-(hydroxymethyl)tetrahydropyran-3,4,5-triol], 1.2 nM.
For `CCc1cc(C#C[C@H]2O[C@H](CO)[C@@H](O)[C@H](O)[C@@H]2O)ccc1C#C[C@H]1O[C@H](CO)[C@@H](O)[C@H](O)[C@@H]1O` [Compound 98, (2R,3S,4R,5S,6R)-2-[2-[3-ethyl-4-[2-[(2R,3S,4R,5S,6R)-3,4,5-trihydroxy-6-(hydroxymethyl)tetrahydropyran-2-yl]ethynyl]phenyl]ethynyl]-6-(hydroxymethyl)tetrahydropyran-3,4,5-triol], the IC50 amounted to 12 nM.
As for `OC[C@H]1O[C@H](C#Cc2ccc(C#C[C@H]3O[C@H](CO)[C@@H](O)[C@H](O)C3O)cc2)[C@@H](O)[C@@H](O)[C@@H]1O` (stereo in doubt) [Compound 69, (2R,3 S,4R,5R,6R)-2-(hydroxymethyl)-6-[2-[4-[2-[(2R,3 S,4R,5 S,6R)-3,4,5-trihydroxy-6-(hydroxymethyl)tetrahydropyran-2-yl]ethynyl]phenyl]ethynyl]tetrahydropyran-3,4,5-triol], the figure is 66 nM; as for `Cc1cc(C2CC2c2ccc([C@H]3O[C@H](CO)[C@@H](O)[C@H](O)[C@@H]3O)cc2)ccc1[C@H]1O[C@H](CO)[C@@H](O)[C@H](O)[C@@H]1O` (some centres unmarked) [Compound 156], 18 nM.
In the case of `OC[C@H]1O[C@H](C#Cc2ccc(C#C[C@H]3O[C@H](CO)[C@@H](O)[C@H](O)[C@@H]3O)c(-c3ccccc3)c2)[C@@H](O)[C@@H](O)[C@@H]1O` [Compound 77, (2R,3S,4R,5S,6R)-2-(hydroxymethyl)-6-[2-[3-phenyl-4-[2-[(2R,3S,4R,5S,6R)-3,4,5-trihydroxy-6-(hydroxymethyl)tetrahydropyran-2-yl]ethynyl]phenyl]ethynyl]tetrahydropyran-3,4,5-triol] it was 4 nM; in that of `OC[C@H]1O[C@H](C#Cc2ccc3c(c2)C2(CCNCC2)c2cc(C#C[C@H]4O[C@H](CO)[C@@H](O)[C@H](O)[C@@H]4O)ccc2-3)[C@@H](O)[C@@H](O)[C@@H]1O` [Compound 192, (2R,3S,4R,5S,6R)-2-(Hydroxymethyl)-6-[2-[7-[2-[(2R,3S,4R,5S,6R)-3,4,5-trihydroxy-6-(hydroxymethyl)tetrahydropyran-2-yl]ethynyl]spiro[fluorene-9,4piperidine]-2-yl]ethynyl]tetrahydropyran-3,4,5-triol], 3.2 nM.
For `OC[C@H]1O[C@H](C#Cc2ccc(C#C[C@H]3O[C@H](CO)[C@@H](O)[C@H](O)[C@@H]3O)c(OC(F)F)c2)[C@@H](O)[C@@H](O)[C@@H]1O` [Compound 92, (2R,3S,4R,5S,6R)-2-[2-[3-(difluoromethoxy)-4-[2-[(2R,3S,4R,5S,6R)-3,4,5-trihydroxy-6-(hydroxymethyl)tetrahydropyran-2-yl]ethynyl]phenyl]ethynyl]-6-(hydroxymethyl)tetrahydropyran-3,4,5-triol], the IC50 was determined as 36 nM.
In the case of `Cc1cc(-c2cnc(-c3ccc([C@H]4O[C@H](CO)[C@@H](O)[C@H](O)[C@@H]4O)c(C)c3)cn2)ccc1[C@H]1O[C@H](CO)[C@@H](O)[C@H](O)[C@@H]1O` [Compound 153, (2R,3S,4R,5S,6R)-2-(hydroxymethyl)-6-[2-methyl-4-[5-[3-methyl-4-[(2R,3S,4R,5S,6R)-3,4,5-trihydroxy-6-(hydroxymethyl)tetrahydropyran-2-yl]phenyl]pyrazin-2-yl]phenyl]tetrahydropyran-3,4,5-triol], the IC50 amounted to 92 nM.
With `OC[C@H]1O[C@H](C#Cc2ccc3c4ccc(C#C[C@H]5O[C@H](CO)[C@@H](O)[C@H](O)[C@@H]5O)cc4n(C4CCOCC4)c3c2)[C@@H](O)[C@@H](O)[C@@H]1O` [Compound 184, (2R,3S,4R,5S,6R)-2-(hydroxymethyl)-6-[2-[9-tetrahydropyran-4-yl-7-[2-[(2R,3S,4R,5S,6R)-3,4,5-trihydroxy-6-(hydroxymethyl)tetrahydropyran-2-yl]ethynyl]carbazol-2-yl]ethynyl]tetrahydropyran-3,4,5-triol], the IC50 came out at 0.83 nM.
As for `CC(C)Oc1cc(C#C[C@H]2O[C@H](CO)[C@@H](O)[C@H](O)[C@@H]2O)ccc1C#C[C@H]1O[C@H](CO)[C@@H](O)[C@H](O)[C@@H]1O` [Compound 83, (2R,3S,4R,5S,6R)-2-(hydroxymethyl)-6-[2-[3-isopropoxy-4-[2-[(2R,3S,4R,5S,6R)-3,4,5-trihydroxy-6-(hydroxymethyl)tetrahydropyran-2-yl]ethynyl]phenyl]ethynyl]tetrahydropyran-3,4,5-triol], the figure is 3.8 nM; as for `O=S1(=O)c2cc(C#C[C@H]3O[C@H](CO)[C@@H](O)[C@H](O)[C@@H]3O)ccc2-c2ccc(C#C[C@H]3O[C@H](CO)[C@@H](O)[C@H](O)[C@@H]3O)cc21` [Compound 161, (2R,3S,4R,5S,6R)-2-[2-[5,5-dioxo-7-[2-[(2R,3S,4R,5S,6R)-3,4,5-trihydroxy-6-(hydroxymethyl)tetrahydropyran-2-yl]ethynyl]dibenzothiophen-3-yl]ethynyl]-6-(hydroxymethyl)tetrahydropyran-3,4,5-triol], 12 nM.
For the molecule `NC1CCC2(CC1)c1cc(C#C[C@H]3O[C@H](CO)[C@@H](O)[C@H](O)[C@@H]3O)ccc1-c1ccc(C#C[C@H]3O[C@H](CO)[C@@H](O)[C@H](O)[C@@H]3O)cc12` [Compound 205], the IC50 worked out at 0.39 nM.
